Experimental data as given in patent publication US10611789B2, “Crystalline form A of rebaudioside D, and preparation method and application therefor” (ZHUCHENG HAOTIAN PHARM CO., LTD, priority 2015, dated 2020).
Converted amounts (≈) assume the structure as drawn.

Assays:
Format in all cases: physicochemical
[1] = XRPD crystal form stability on storage
Procedure: XRPD analysis: a Bruker D8 advance diffractometer from German Brook Instruments Co. LTD was used for detection at room temperature, using Cu-Kα ray (λ=1.5418 Å) with 2θ angle scanning from 3° to 40° at a scanning speed of 0.2°/second.
The crystal form A of Rebaudioside D prepared in the above examples was subjected to XRPD analysis under the conditions of 25° C. and RH≤30%. The analysis results are shown in FIG. 6, and it can be seen from FIG. 6 that the crystal form thereof is unchanged and has a good stability.
The crystal form A of Rebaudioside D prepared in the above examples was stored for 6 months under the conditions of 25° C. and RH≤60%. The analysis results are shown in FIG. 7, and it can be seen from FIG. 7 that the crystal form thereof is unchanged and has a good stability.

[2] = HPLC chemical stability on storage; settings: after six months of storage (25° C., relative humidity 60%)
Procedure: HPLC analysis: a 1260 infinity liquid chromatograph from American Agilent Technologies was used for determination. Preparation method for the sample solution: 25-50 mg of the Rebaudioside D sample was accurately weighed, and placed in a 25 ml of volumetric flask, and then a solution of water-acetonitrile (7:3, v/v) was added for dissolution and the volume was set to the scale. The fomulation method for sodium phosphate buffer (specification: 10 mmol/L, pH: 2.6): 2.76 g of sodium dihydrogen phosphate was dissolved in 2 L of water, phosphoric acid was added and the pH was adjusted to 2.6. Chromatographic column: Phenomenex's Luna 5μ C18 (2) 100 A column. Injection volume: 5 μl. Flow rate: 1.0 mL/min. Column temperature: 40° C. Detector: 210 nm of UV detection. Mobile phase: acetonitrile and sodium phosphate buffer (specification: 10 mmol/L, pH: 2.6) at a ratio of 32:68.

[3] = water solubility of crystal form A
[4] = dynamic vapor sorption (DVS) analysis; settings: 25° C.
Procedure: DVS analysis: a DVS Intrinsic Dynamic Moisture Adsorption Device of UK SMS Instrument Company was used for detection. The measuring temperature: 25° C.; the relative humidity: 0-95%.

crystal form by XRPD ([1]; 25° C. and RH≤30%): unchanged | crystal form by XRPD after storage ([1]; stored for 6 months, 25° C. and RH≤60%): unchanged | variation of HPLC purity compared with the raw material [2]: less than 0.5% | solubility [3]: ~0.6 mg/mL (≈ 531 µM) | mass percentage of absorbed moisture ([4]; within a relative humidity of 0-40%): 0-3.4% | mass percentage of absorbed moisture ([4]; within a relative humidity of 40-100%): 3.4-7.1%
SMILES: C=C1C[C@@]23CCC4[C@@](C)(CCC[C@@]4(C)C(=O)O[C@@H]4OC(CO)[C@@H](O)C(O)C4OC4OC(CO)[C@@H](O)C(O)C4O)C2CC[C@]1(OC1OC(CO)C(O)C(OC2OC(CO)C(O)C(O)C2O)C1OC1OC(CO)C(O)C(O)C1O)C3 (stereo partly drawn) [crystal form A of Rebaudioside D, Rebaudioside D]
